Test results from patent publication US9464081B2, “Pyrrolidine derivatives and their use as complement pathway modulators” (priority 2012, dated 2016).
pIC50: −log10 of the molar value.

Target: Recombinant human factor D (Homo sapiens (Human), UniProt P00746)
Assay: Human Complement Factor D Assay: Method 1
Format: biochemical
Conditions: 10 nM recombinant human factor D, substrate Z-Lys-thiobenzyl, fluorescence readout, read-out: IC50 Factor D inhibition
Procedure: Human Complement Factor D Assay: Method 1
Recombinant human factor D (expressed in E. coli and purified using standard methods) at 10 nM concentration is incubated with test compound at various concentrations for 1 hour at room temperature in 0.1 M Hepes buffer, pH 7.5, containing 1 mM MgCl2, 1 M NaCl and 0.05% CHAPS. A synthetic substrate Z-Lys-thiobenzyl and 2,4-dinitrobenzenesulfonyl-fluoresceine are added to final concentrations of 200 μM and 25 μM, respectively. The increase in fluorescence is recorded at excitation of 485 nm and emission at 535 nm in a microplate spectrofluorimeter. IC50 values are calculated from percentage of inhibition of complement factor D-activity as a function of test compound concentration.
Factor D Inhibition Data Using Method 1 to Determine the IC50s.

Chain of Recombinant human factor D (P00746 26-253): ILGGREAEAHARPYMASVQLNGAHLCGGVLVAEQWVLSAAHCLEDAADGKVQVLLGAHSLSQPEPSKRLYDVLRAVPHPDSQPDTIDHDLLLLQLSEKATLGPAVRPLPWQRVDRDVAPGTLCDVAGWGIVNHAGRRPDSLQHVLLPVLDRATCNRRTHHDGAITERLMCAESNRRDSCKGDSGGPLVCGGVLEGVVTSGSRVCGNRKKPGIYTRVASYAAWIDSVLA

Row | Compound | pIC50
1 | CC(C)=C(F)CNC(=O)[C@@H]1C[C@H]2C[C@H]2N1C(=O)Cn1nc(C(N)=O)c2ccc(Cl)cc21 [Example 1, 6-Chloro-1-{2-[(1R,3S,5R)-3-(2-fluoro-3-methyl-but-2-enylcarbamoyl)-2-aza-bicyclo[3.1.0]hex-2-yl]-2-oxo-ethyl}-1H-indazole-3-carboxylic acid amide] | 7.48
2 | CC(C)=C(F)CNC(=O)[C@@H]1C[C@H]2C[C@H]2N1C(=O)Cn1nc(C(N)=O)c2ccccc21 [Example 2, 1-{2-[(1R,3S,5R)-3-(2-Fluoro-3-methyl-but-2-enylcarbamoyl)-2-aza-bicyclo[3.1.0]hex-2-yl]-2-oxo-thyl}-1H-indazole-3-carboxylic acid amide] | 7.46
3 | CC(C)=C(F)CNC(=O)[C@@H]1C[C@@H](F)CN1C(=O)Cn1nc(C(N)=O)c2ccncc21 [Example 3, 1-{2-[(2S,4R)-4-Fluoro-2-(2-fluoro-3-methyl-but-2-enylcarbamoyl)-pyrrolidin-1-yl]-2-oxo-ethyl}-1H-pyrazolo[3,4-c]pyridine-3-carboxylic acid amide] | 6.59
4 | CC(C)=C(F)CNC(=O)[C@@H]1C[C@H]2C[C@H]2N1C(=O)Cn1nc(C(N)=O)c2ccc(C)cc21 [Example 4, 1-{2-[(1R,3S,5R)-3-(2-Fluoro-3-methyl-but-2-enylcarbamoyl)-2-aza-bicyclo[3.1.0]hex-2-yl]-2-oxo-ethyl}-6-methyl-1H-indazole-3-carboxylic acid amide] | 6.35
5 | CO[C@H]1[C@@H](C(=O)NCC(F)=C(C)C)N(C(=O)Cn2nc(C(N)=O)c3ccncc32)C[C@@H]1F [Example 5, 1-{2-[(2S,3S,4S)-4-Fluoro-2-(2-fluoro-3-methyl-but-2-enylcarbamoyl)-3-methoxy-pyrrolidin-1-yl]-2-oxo-ethyl}-1H-pyrazolo[3,4-c]pyridine-3-carboxylic acid amide] | 6.60
6 | CC(C)=C(F)CNC(=O)[C@@H]1C[C@@]2(CO)C[C@H]2N1C(=O)Cn1nc(C(N)=O)c2ccccc21 [Example 6, 1-{2-[(1R,3S,5S)-3-(2-Fluoro-3-methyl-but-2-enylcarbamoyl)-5-hydroxymethyl-2-aza-bicyclo[3.1.0]hex-2-yl]-2-oxo-ethyl}-1H-indazole-3-carboxylic acid amide] | 7.00
7 | CC(C)=C(F)CNC(=O)[C@@H]1C[C@@H](F)CN1C(=O)Cn1nc(C(N)=O)c2ccccc21 [Example 7, 1-{2-[(2S,4R)-4-Fluoro-2-(2-fluoro-3-methyl-but-2-enylcarbamoyl)-pyrrolidin-1-yl]-2-oxo-ethyl}-1H-indazole-3-carboxylic acid amide] | 7.25
8 | CO[C@H]1[C@@H](C(=O)NCC(F)=C(C)C)N(C(=O)Cn2nc(C(N)=O)c3ccccc32)C[C@@H]1F [Example 8, 1-{2-[(2S,3S,4S)-4-Fluoro-2-(2-fluoro-3-methyl-but-2-enylcarbamoyl)-3-methoxy-pyrrolidin-1-yl]-2-oxo-ethyl}-1H-indazole-3-carboxylic acid amide] | 7.23
9 | CC(C)=C(F)CNC(=O)[C@@H]1C[C@H]2C[C@H]2N1C(=O)Cn1nc(C(N)=O)c2cc(C)nc(C)c21 [Example 9, 1-{2-[(1R,3S,5R)-3-(2-Fluoro-3-methyl-but-2-enylcarbamoyl)-2-aza-bicyclo[3.1.0]hex-2-yl]-2-oxo-ethyl}-5,7-dimethyl-1H-pyrazolo[3,4-c]pyridine-3-carboxylic acid amide] | 6.45
10 | CC(C)=C(F)CNC(=O)[C@@H]1C[C@H]2C[C@H]2N1C(=O)Cn1nc(C(N)=O)c2ccncc21 [Example 10, 1-{2-[(1R,3S,5R)-3-(2-Fluoro-3-methyl-but-2-enylcarbamoyl)-2-aza-bicyclo[3.1.0]hex-2-yl]-2-oxo-ethyl}-1H-pyrazolo[3,4-c]pyridine-3-carboxylic acid amide] | 7.11
11 | CC(=O)c1nn(CC(=O)N2[C@@H]3C[C@@H]3C[C@H]2C(=O)NCC(F)=C(C)C)c2ccccc12 [Example 11, (1R,3S,5R)-2-[2-(3-Acetyl-indazol-1-yl)-acetyl]-2-aza-bicyclo[3.1.0]hexane-3-carboxylic acid (2-fluoro-3-methyl-but-2-enyl)-amide] | 7.72
12 | CC(C)=C(F)CNC(=O)[C@@H]1C[C@H]2C[C@H]2N1C(=O)Cn1nc(C(N)=O)c2cc(C)ncc21 [Example 12, 1-{2-[(1R,3S,5R)-3-(2-Fluoro-3-methyl-but-2-enylcarbamoyl)-2-aza-bicyclo[3.1.0]hex-2-yl]-2-oxo-ethyl}-5-methyl-1H-pyrazolo[3,4-c]pyridine-3-carboxylic acid amide] | 7.13
13 | CC(=O)c1nn(CC(=O)N2[C@@H]3C[C@@H]3C[C@H]2C(=O)NCC(F)=C(C)C)c2cnccc12 [Example 13, (1R,3S,5R)-2-[2-(3-Acetyl-pyrazolo[3,4-c]pyridin-1-yl)-acetyl]-2-aza-bicyclo[3.1.0]hexane-3-carboxylic acid (2-fluoro-3-methyl-but-2-enyl)-amide] | 7.43
14 | CC(C)=C(F)CNC(=O)[C@@H]1C[C@H]2C[C@H]2N1C(=O)Cn1nc(C(N)=O)c2ccnc(C)c21 [Example 14, 1-{2-[(1R,3S,5R)-3-(2-Fluoro-3-methyl-but-2-enylcarbamoyl)-2-aza-bicyclo[3.1.0]hex-2-yl]-2-oxo-ethyl}-7-methyl-1H-pyrazolo[3,4-c]pyridine-3-carboxylic acid amide] | 7.20
15 | CCc1cc2c(C(N)=O)nn(CC(=O)N3[C@@H]4C[C@@H]4C[C@H]3C(=O)NCC(F)=C(C)C)c2cn1 [Example 15, 5-Ethyl-1-{2-[(1R,3S,5R)-3-(2-fluoro-3-methyl-but-2-enylcarbamoyl)-2-aza-bicyclo[3.1.0]hex-2-yl]-2-oxo-ethyl}-1H-pyrazolo[3,4-c]pyridine-3-carboxylic acid amide] | 7.37
16 | CC(=O)c1nn(CC(=O)N2[C@@H]3C[C@@H]3C[C@H]2C(=O)NCC(F)=C(C)C)c2ccc(OCc3ncccn3)cc12 [Example 16, (1R,3S,5R)-2-{2-[3-Acetyl-5-(pyrimidin-2-ylmethoxy)-indazol-1-yl]-acetyl}-2-aza-bicyclo[3.1.0]hexane-3-carboxylic acid (2-fluoro-3-methyl-but-2-enyl)-amide] | 8.15
17 | NC(=O)c1nn(CC(=O)N2[C@@H]3C[C@@H]3C[C@H]2C(=O)NCC(F)=C2CCCC2)c2ccccc12 [Example 17, 1-{2-[(1R,3S,5R)-3-(2-Cyclopentylidene-2-fluoro-ethylcarbamoyl)-2-aza-bicyclo[3.1.0]hex-2-yl]-2-oxo-ethyl}-1H-indazole-3-carboxylic acid amide] | 6.89
18 | [2H]C([2H])([2H])C(=C(F)CNC(=O)[C@@H]1C[C@H]2C[C@H]2N1C(=O)Cn1nc(C(N)=O)c2ccccc21)C([2H])([2H])[2H] [Example 18, 1-{2-[(1R,3S,5R)-3-(2-Fluoro-3-di-(trideutero-methyl)-allylcarbamoyl)-2-aza-bicyclo[3.1.0]hex-2-yl]-2-oxo-ethyl}-1H-indazole-3-carboxylic acid amide] | 7.30
19 | CC(C)=C(F)C(C)NC(=O)[C@@H]1C[C@H]2C[C@H]2N1C(=O)Cn1nc(C(N)=O)c2ccccc21 (stereo partly drawn) [Example 19, 1-{2-[(1R,3S,5R)-3-(2-Fluoro-1,3-dimethyl-but-2-enylcarbamoyl)-2-aza-bicyclo[3.1.0]hex-2-yl]-2-oxo-ethyl}-1H-indazole-3-carboxylic acid amide] | 8.15
20 | NC(=O)c1nn(CC(=O)N2[C@@H]3C[C@@H]3C[C@H]2C(=O)NC/C(F)=C/C(F)(F)F)c2ccccc12 [Example 20, 1-(2-oxo-2-((1R,3S,5R)-3-(((Z)-2,4,4,4-tetrafluorobut-2-en-1-yl)carbamoyl)-2-azabicyclo[3.1.0]hexan-2-yl)ethyl)-1H-indazole-3-carboxamide] | 7.05
21 | CC(C)=C(F)[C@H](C)NC(=O)[C@@H]1C[C@H]2C[C@H]2N1C(=O)Cn1nc(C(N)=O)c2ccccc21 [Example 21, 1-(2-((1R,3S,5R)-3-((S)-3-fluoro-4-methylpent-3-en-2-ylcarbamoyl)-2-azabicyclo[3.1.0]hexan-2-yl)-2-oxoethyl)-1H-indazole-3-carboxamide] | 5.74
22 | CC(C)=C(F)[C@@H](C)NC(=O)[C@@H]1C[C@H]2C[C@H]2N1C(=O)Cn1nc(C(N)=O)c2ccccc21 [Example 22, 1-(2-((1R,3S,5R)-3-((R)-3-fluoro-4-methylpent-3-en-2-ylcarbamoyl)-2-azabicyclo[3.1.0]hexan-2-yl)-2-oxoethyl)-1H-indazole-3-carboxamide] | 8.22
